Several values for one entry are separate records, joined by “and”; a condition that tells them apart may be missing. Equal values may be shown once. Read-outs that look alike come from different tables or passages of the source.
Tests used:
[1] = tested on: metastatic uveal melanoma; conditions: ref [10], cited from earlier work
uveal melanoma = tested on: uveal melanoma; parameters: method as in PMID 22550165; conditions: ref [7], cited from earlier work
[2] = Phase Ib trial of intermittent selumetinib: adverse events, DLT and MTD; format: in vivo
From the text: This was a multi-center, open-label, phase Ib study conducted at Columbia University Irving Medical Center (New York, NY), University of Texas MD Anderson Cancer Center (Houston, TX), and Memorial Sloan Kettering Cancer Center (New York, NY). […] Exploratory objectives included pharmacodynamic (PD) assessment of target inhibition of the MEK pathway.
The MTD was estimated using the time to event continual reassessment method (TITE-CRM) with a target DLT rate of 0.25 ([17]). TITE-CRM was used as it allows use of partial information before a complete follow-up is achieved and allows for a longer toxicity evaluation window beyond the first cycle to account for late onset toxicities. As a result, trials can be conducted in a continuous fashion. […] Based on prior clinical data, the estimated MTD prior to conduct of the trial was DL2.
Descriptive statistics were used to report baseline characteristics of the study population. The observed rate and estimated rate of DLT were reported for each dose level along with the 90% probability interval. The number and percentage of patients with adverse events were summarized taking the highest grade and reported by grade for AEs that were at least possibly related to treatment. AEs with at prevalence of least 10% were reported separately. The overall response rate (ORR) was defined as a confirmed complete response (CR) or partial response (PR) according to RECIST 1.1 criteria ([18]) and reported by dose level. […] PFS was measured from date of enrollment until the date of progression or death, whichever occurred first. OS was defined as the time from the date of registration to the date of death by any cause.
Toxicity was graded using National Cancer Institute Common Terminology Criteria for Adverse Events (CTCAE v. 4.0). For recurrent adverse events (AEs), the highest reported grade per event per patient was assessed. The DLT observation period was 8 weeks from the initiation of treatment.

[3] = cited from earlier work
clinical = conditions: human, in vivo
Protocol: (§1) Non-compartmental analyses were performed on the data for day 1, 2, 15 and 17 using Winnonlin software (Phoenix Winnonlin 8.3.1.5014, Certara L.P., Princeton, NJ). […] Data were summarized per dose level and per occasion. Dose-exposure relationships were explored by plotting dose versus the various parameters. Accumulation was investigated using the AUC assessed at various days.

[4] = in vivo
Protocol: as §1

pERK = assay: Pharmacodynamic analysis of serial tumor biopsies (immunoblot, densitometry); format: in vivo, human
Protocol: Serial tumor biopsies were collected from patients at baseline, on day 3, and between days 11 and 14. Flash-frozen specimens were lysed in RIPA lysis buffer. Equal amounts of protein were loaded on 4-20% PAGE gels (Invitrogen) and analyzed by immunoblotting using antibodies for pERK, ERK, cyclin D1 and α-tubulin (Cell Signaling). Signals from secondary antibodies were detected using ECL (Pierce) and autoradiography films. Densitometry analysis of each band was performed using Photoshop C6 and normalized to tubulin expression.

[5] = related to study treatment, 29 patients, all dose levels

In the case of `Cn1cnc2c(F)c(Nc3ccc(Br)cc3Cl)c(C(=O)NOCCO)cc21` [selumetinib], the “median PFS” value ([1]; SELPAC, selumetinib 75 mg BID) is given as 3.4 months, the ORR ([1]; SelPac, 77 patients) is given as 4% and the “median OS” value ([1]; SelPac, 77 patients) is given as 10 months. The “median PFS” value (uveal melanoma; selumetinib 75 mg BID vs temozolomide or DTIC) was 16 weeks, the “patients achieving an objective radiographic response” value (uveal melanoma; selumetinib 75 mg BID) was 14% and the “increase of intermittent MTD over continuous dose MTD” value ([2]; 150 mg BID vs 75 mg BID) was 100%. The “patients requiring dose reduction for treatment-related toxicity” value ([2]; 29 patients, all dose levels) was 21%, the “patients who discontinued therapy due to toxicity” value ([2]; 29 patients, all dose levels) was “Five patients discontinued therapy due to toxicity” and the “patients with at least one treatment-related AE of any grade” value ([2]; 29 patients, all dose levels) was “All patients”. For the same molecule, the “patients with grade 3 or higher treatment-related AE” value ([2]; 29 patients, all dose levels) was 17%, the “Observed DLTs” value ([2]; All dose levels, 29 patients) was 5 and the “estimated probability of toxicity at the MTD” value ([2]; DL3 150 mg BID, 90% probability interval 16%-44%) was 29%. For the same molecule, the “DLT Information” value ([2]; Dose Level 2 (125 mg BID)) was “• Grade 3 Hypertension • Grade 3 Abdominal pain”, the “Observed DLTs” value ([2]; Dose Level 2 (125 mg BID), 20 patients) was 2/20 and 2 and the “DLT Information” value ([2]; Dose Level 3 (150 mg BID)) was “• Grade 3 Abdominal pain • Grade 3 AST elevation”. The “Observed DLTs” value ([2]; Dose Level 3 (150 mg BID), 5 patients) was 2/5 and 2, the “DLT Information” value ([2]; Dose Level 4 (175 mg BID)) was “• Grade 3 AST elevation” and the “Observed DLTs” value ([2]; Dose Level 4 (175 mg BID), 1 patient) was 1/1 and 1. For the same molecule, the “most common grade 3 AE” value ([2]; all dose levels) was “abdominal pain”, the “treatment discontinuation associated with liver enzyme elevation” value ([2]; all dose levels) was 2 n and the “treatment discontinuation associated with retinopathy” value ([2]; all dose levels) was 2 n. The “patients who died within 30 days of treatment discontinuation” value ([2]; all from progression of disease) was 4 patients, the “Abdominal pain, All Grades” value [2, 5] was 12 (41%) patients (%) and the “Abdominal pain, Grade 1” value [2, 5] was 5 (17) n(%). The “Abdominal pain, Grade 2” value [2, 5] was 4 (14) n(%), the “Abdominal pain, Grade 3” value [2, 5] was 3 (10) n(%) and the “Abdominal pain, Grade 4” value [2, 5] was 0 n(%). For the same molecule, the “Anemia, All Grades” value [2, 5] was 13 (45%) patients (%), the “Anemia, Grade 1” value [2, 5] was 11 (38) n(%) and the “Anemia, Grade 2” value [2, 5] was 1 (3) n(%). The “Anemia, Grade 3” value [2, 5] was 0 n(%), the “Anemia, Grade 4” value [2, 5] was 1 (3) n(%) and the “Constipation, All Grades” value [2, 5] was 10 (34%) patients (%). For the same molecule, the “Constipation, Grade 1” value [2, 5] was 8 (28) n(%), the “Constipation, Grade 2” value [2, 5] was 2 (7) n(%) and the “Constipation, Grade 3” value [2, 5] was 0 n(%). For the same molecule, the “Constipation, Grade 4” value [2, 5] was 0 n(%), the “Decreased WBC, All Grades” value [2, 5] was 8 (28%) patients (%) and the “Decreased WBC, Grade 1” value [2, 5] was 5 (17) n(%). The “Decreased WBC, Grade 2” value [2, 5] was 2 (7) n(%), the “Decreased WBC, Grade 3” value [2, 5] was 1 (3) n(%) and the “Decreased WBC, Grade 4” value [2, 5] was 0 n(%). For the same molecule, the “Diarrhea, All Grades” value [2, 5] was 16 (55%) patients (%), the “Diarrhea, Grade 1” value [2, 5] was 14 (48) n(%) and the “Diarrhea, Grade 2” value [2, 5] was 2 (7) n(%). For the same molecule, the “Diarrhea, Grade 3” value [2, 5] was 0 n(%), the “Diarrhea, Grade 4” value [2, 5] was 0 n(%) and the “Fatigue, All Grades” value [2, 5] was 25 (86%) patients (%). For the same molecule, the “Fatigue, Grade 1” value [2, 5] was 19 (66) n(%), the “Fatigue, Grade 2” value [2, 5] was 6 (21) n(%) and the “Fatigue, Grade 3” value [2, 5] was 0 n(%). For the same molecule, the “Fatigue, Grade 4” value [2, 5] was 0 n(%), the “Hypertension, All Grades” value [2, 5] was 14 (48%) patients (%) and the “Hypertension, Grade 1” value [2, 5] was 3 (10) n(%). For the same molecule, the “Hypertension, Grade 2” value [2, 5] was 9 (31) n(%), the “Hypertension, Grade 3” value [2, 5] was 2 (7) n(%) and the “Hypertension, Grade 4” value [2, 5] was 0 n(%). The “Increased AST/ALT, All Grades” value [2, 5] was 12 (41%) patients (%), the “Increased AST/ALT, Grade 1” value [2, 5] was 10 (34) n(%) and the “Increased AST/ALT, Grade 2” value [2, 5] was 0 n(%). For the same molecule, the “Increased AST/ALT, Grade 3” value [2, 5] was 2 (7) n(%), the “Increased AST/ALT, Grade 4” value [2, 5] was 0 n(%) and the “Nausea, All Grades” value [2, 5] was 17 (59%) patients (%). The “Nausea, Grade 1” value [2, 5] was 12 (41) n(%), the “Nausea, Grade 2” value [2, 5] was 5 (17) n(%) and the “Nausea, Grade 3” value [2, 5] was 0 n(%). The “Nausea, Grade 4” value [2, 5] was 0 n(%), the “Pruritus, Grade 1” value [2, 5] was 10 (34) n(%) and the “Pruritus, Grade 2” value [2, 5] was 0 n(%). The “Pruritus, Grade 3” value [2, 5] was 0 n(%), the “Pruritus, Grade 4” value [2, 5] was 0 n(%) and the “Rash acneiform, All Grades” value [2, 5] was 19 (65%) patients (%). For the same molecule, the “Rash acneiform, Grade 1” value [2, 5] was 14 (48) n(%), the “Rash acneiform, Grade 2” value [2, 5] was 5 (17) n(%) and the “Rash acneiform, Grade 3” value [2, 5] was 0 n(%). For the same molecule, the “Rash acneiform, Grade 4” value [2, 5] was 0 n(%), the “Retinopathy/Blurred Vision, All Grades” value [2, 5] was 8 (28%) patients (%) and the “Retinopathy/Blurred Vision, Grade 1” value [2, 5] was 8 (28) n(%). The “Retinopathy/Blurred Vision, Grade 2” value [2, 5] was 0 n(%), the “Retinopathy/Blurred Vision, Grade 3” value [2, 5] was 0 n(%) and the “Retinopathy/Blurred Vision, Grade 4” value [2, 5] was 0 n(%). The “Vomiting, All Grades” value [2, 5] was 8 (28%) patients (%), the “Vomiting, Grade 1” value [2, 5] was 5 (17) n(%) and the “Vomiting, Grade 2” value [2, 5] was 3 (10) n(%). For the same molecule, the “Vomiting, Grade 3” value [2, 5] was 0 n(%), the “Vomiting, Grade 4” value [2, 5] was 0 n(%) and the “continuous dose MTD” value ([3]; continuous dosing schedule) was 75 mg BID. For the same molecule, the mean half-life ([3]; prior knowledge, no reference given) was 5 to 8 h, the half-life (clinical) was 4.3 h and the Tmax (clinical; po) was ~1.7 h. The AUC0-4h ([4]; human, 100 mg) was 2903 ± 461 (6) h*ng/mL, the AUC0-8h ([4]; human, 100 mg) was 4265 ± 628 (2) h*ng/mL and the CL/F ([4]; human, 100 mg) was 20.9 ± 3.7 (2) L/h. The Cmax ([4]; human, 100 mg) was 1453 ± 530 (6) ng/mL, the Tmax ([4]; human, 100 mg) was 1.7 ± 0.5 (6) h and the t½ ([4]; human, 100 mg) was 2.4 ± 0.3 (2) h. For the same molecule, the AUC0-4h ([4]; human, 125 mg) was 4270 ± 1470 (56) h*ng/mL, the AUC0-8h ([4]; human, 125 mg) was 6042 ± 2210 (29) h*ng/mL and the CL/F ([4]; human, 125 mg) was 18.7 ± 8.1 (26) L/h. For the same molecule, the Cmax ([4]; human, 125 mg) was 2115 ± 798 (56) ng/mL, the “intra-patient coefficient of variation for AUC0-8h” value ([4]; human, 125 mg) was 11.3% and the “intra-patient coefficient of variation for Cmax” value ([4]; human, 125 mg) was 25.3%. For the same molecule, the t½ ([4]; human, 125 mg) was 4.3 ± 5.7 (26) h, the AUC0-4h ([4]; human, 150 mg) was 6073 ± 1540 (8) h*ng/mL and the AUC0-8h ([4]; human, 150 mg) was 6683 ± 729 (4) h*ng/mL. The CL/F ([4]; human, 150 mg) was 14.8 ± 7.6 (8) L/h, the Cmax ([4]; human, 150 mg) was 3041 ± 1155 (8) ng/mL and the t½ ([4]; human, 150 mg) was 7.9 ± 9.1 (3) h. For the same molecule, the accumulation [4] was “little to no accumulation”, the “mean reduction in pERK expression” value (pERK; day 3 of first cycle (on treatment) vs baseline, n=9) was 41.3% and the “mean increase in pERK expression from day 3” value (pERK; day 11-14, off-treatment window) was 69.3%. The “cases with at least partial pERK recovery” value (pERK; day 11-14 off treatment, of 9 patients) was 7 cases.

— paper PMC9557946, “Intermittent MEK inhibition for the treatment of metastatic uveal melanoma” (Frontiers in Oncology, 2022)
